The values that follow come from ChEMBL document CHEMBL5291721, “A preclinical secondary pharmacology resource illuminates target-adverse drug reaction associations of marketed drugs” (Nat Commun, 2023).

Experiment [1] addresses T1, Muscarinic acetylcholine receptor M1 (Homo sapiens, UniProt P11229).
T1 sequence (P11229 whole entry): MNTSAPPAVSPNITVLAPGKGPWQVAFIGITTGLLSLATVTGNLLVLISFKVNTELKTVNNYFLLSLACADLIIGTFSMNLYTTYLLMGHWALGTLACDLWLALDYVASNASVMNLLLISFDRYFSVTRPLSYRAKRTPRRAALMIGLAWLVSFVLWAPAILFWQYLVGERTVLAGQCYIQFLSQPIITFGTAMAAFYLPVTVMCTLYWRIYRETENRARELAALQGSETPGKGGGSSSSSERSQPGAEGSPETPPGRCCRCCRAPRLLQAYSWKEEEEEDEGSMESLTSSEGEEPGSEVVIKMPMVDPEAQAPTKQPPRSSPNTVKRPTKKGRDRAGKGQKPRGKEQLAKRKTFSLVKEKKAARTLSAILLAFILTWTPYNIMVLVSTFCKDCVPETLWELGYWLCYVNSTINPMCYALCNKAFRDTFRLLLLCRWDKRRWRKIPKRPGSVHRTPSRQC
It counts as functional, cell-based.

Experiment [2] deals with 3',5'-cyclic-AMP phosphodiesterase 4A (Homo sapiens, UniProt P27815). It counts as functional.
Chain of 3',5'-cyclic-AMP phosphodiesterase 4A (P27815 whole entry): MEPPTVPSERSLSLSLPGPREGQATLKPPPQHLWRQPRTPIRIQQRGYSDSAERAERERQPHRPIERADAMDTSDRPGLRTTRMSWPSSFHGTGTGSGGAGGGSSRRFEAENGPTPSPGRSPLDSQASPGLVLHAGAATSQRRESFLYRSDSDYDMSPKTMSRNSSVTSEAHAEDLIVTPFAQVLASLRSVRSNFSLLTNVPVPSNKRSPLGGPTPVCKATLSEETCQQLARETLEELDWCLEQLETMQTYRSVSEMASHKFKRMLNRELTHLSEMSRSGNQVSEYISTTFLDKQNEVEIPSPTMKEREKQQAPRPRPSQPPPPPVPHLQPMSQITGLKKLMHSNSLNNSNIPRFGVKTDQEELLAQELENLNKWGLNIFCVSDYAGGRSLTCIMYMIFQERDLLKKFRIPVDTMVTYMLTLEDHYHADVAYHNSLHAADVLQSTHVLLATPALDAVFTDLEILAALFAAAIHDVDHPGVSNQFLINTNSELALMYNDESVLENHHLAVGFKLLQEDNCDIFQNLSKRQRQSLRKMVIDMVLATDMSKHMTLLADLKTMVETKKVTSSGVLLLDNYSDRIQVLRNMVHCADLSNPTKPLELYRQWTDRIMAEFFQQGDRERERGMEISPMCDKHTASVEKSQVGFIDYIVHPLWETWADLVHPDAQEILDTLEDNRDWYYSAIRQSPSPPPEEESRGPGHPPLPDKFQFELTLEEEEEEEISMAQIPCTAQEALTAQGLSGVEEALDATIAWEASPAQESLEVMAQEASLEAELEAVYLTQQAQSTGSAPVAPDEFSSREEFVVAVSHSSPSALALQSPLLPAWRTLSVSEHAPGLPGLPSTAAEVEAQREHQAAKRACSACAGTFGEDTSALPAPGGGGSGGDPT
In experiment [3] the target is T2, cGMP-inhibited 3',5'-cyclic phosphodiesterase 3A (Homo sapiens, UniProt Q14432). It counts as functional.
T2 sequence (Q14432 whole entry): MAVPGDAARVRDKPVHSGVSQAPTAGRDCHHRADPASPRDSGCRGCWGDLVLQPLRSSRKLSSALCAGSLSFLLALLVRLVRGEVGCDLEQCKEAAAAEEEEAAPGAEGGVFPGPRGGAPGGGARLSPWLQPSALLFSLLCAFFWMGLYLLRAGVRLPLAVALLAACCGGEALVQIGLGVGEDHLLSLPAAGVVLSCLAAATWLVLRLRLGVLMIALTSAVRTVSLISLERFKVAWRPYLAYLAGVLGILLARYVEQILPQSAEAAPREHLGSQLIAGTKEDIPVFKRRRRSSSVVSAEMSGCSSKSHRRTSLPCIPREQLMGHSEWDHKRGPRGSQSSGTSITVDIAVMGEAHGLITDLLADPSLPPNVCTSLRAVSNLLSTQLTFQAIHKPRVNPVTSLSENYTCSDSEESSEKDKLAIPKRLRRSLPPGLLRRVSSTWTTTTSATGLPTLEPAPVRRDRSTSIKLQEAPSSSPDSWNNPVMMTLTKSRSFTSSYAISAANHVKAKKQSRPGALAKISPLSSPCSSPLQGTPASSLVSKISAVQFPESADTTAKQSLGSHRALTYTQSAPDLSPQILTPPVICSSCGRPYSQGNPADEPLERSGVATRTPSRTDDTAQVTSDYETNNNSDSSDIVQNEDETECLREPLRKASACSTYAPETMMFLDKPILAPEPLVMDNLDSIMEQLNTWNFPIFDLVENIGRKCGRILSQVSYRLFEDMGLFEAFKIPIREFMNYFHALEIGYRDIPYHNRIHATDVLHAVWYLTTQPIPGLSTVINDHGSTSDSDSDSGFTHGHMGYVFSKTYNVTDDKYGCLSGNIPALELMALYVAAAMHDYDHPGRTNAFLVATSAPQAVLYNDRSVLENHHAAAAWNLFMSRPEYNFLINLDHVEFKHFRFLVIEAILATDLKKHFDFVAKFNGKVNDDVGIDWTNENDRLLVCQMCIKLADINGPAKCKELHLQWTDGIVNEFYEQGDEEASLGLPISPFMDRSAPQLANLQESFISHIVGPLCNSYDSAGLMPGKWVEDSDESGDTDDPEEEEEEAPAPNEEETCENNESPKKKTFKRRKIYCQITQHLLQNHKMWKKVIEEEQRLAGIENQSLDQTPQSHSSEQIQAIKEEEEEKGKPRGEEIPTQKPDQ
A further experiment has as its target D(3) dopamine receptor (Homo sapiens, UniProt P35462).
Experiment [4] has as its target T2, cGMP-inhibited 3',5'-cyclic phosphodiesterase 3A. It counts as functional. This is another data set of the same source.
Experiment [5] deals with T3, Prostaglandin G/H synthase 1 (Rattus norvegicus, UniProt Q63921).
T3 sequence (Q63921 whole entry): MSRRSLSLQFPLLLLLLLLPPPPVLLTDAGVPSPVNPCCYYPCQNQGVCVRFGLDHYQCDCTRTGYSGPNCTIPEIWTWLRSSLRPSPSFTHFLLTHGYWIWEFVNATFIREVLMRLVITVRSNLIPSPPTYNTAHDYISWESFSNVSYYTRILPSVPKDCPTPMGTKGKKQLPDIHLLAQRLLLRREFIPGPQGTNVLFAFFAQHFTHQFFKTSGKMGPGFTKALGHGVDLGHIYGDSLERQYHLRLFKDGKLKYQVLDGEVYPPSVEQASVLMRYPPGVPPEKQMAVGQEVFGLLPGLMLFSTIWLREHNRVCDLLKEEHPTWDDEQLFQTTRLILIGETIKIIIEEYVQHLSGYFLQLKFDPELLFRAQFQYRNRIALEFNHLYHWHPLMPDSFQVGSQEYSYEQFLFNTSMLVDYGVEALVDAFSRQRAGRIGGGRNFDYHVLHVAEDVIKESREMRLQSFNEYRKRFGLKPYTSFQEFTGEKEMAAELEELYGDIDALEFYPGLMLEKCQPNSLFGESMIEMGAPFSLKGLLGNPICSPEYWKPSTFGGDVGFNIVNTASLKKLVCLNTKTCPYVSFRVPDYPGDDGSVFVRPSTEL
It counts as functional.

In experiment [6] the target is 5-hydroxytryptamine receptor 2A (Homo sapiens, UniProt P28223). It counts as functional, cell-based.
Chain of 5-hydroxytryptamine receptor 2A (P28223 whole entry): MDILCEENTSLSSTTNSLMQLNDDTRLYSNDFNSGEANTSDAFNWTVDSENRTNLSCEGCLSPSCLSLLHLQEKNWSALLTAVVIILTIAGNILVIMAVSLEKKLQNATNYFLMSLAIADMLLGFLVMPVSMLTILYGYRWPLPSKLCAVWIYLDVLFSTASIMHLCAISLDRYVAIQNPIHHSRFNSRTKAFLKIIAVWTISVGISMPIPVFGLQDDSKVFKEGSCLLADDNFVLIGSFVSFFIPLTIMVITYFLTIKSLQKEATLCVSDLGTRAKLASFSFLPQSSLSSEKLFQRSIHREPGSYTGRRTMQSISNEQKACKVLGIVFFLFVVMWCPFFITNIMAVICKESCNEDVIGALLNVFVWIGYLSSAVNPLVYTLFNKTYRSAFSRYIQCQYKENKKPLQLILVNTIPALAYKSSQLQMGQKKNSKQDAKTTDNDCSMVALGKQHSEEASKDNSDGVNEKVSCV
The next experiment concerns the target T4, Endothelin-1 receptor (Homo sapiens, UniProt P25101).
T4 sequence (P25101 whole entry): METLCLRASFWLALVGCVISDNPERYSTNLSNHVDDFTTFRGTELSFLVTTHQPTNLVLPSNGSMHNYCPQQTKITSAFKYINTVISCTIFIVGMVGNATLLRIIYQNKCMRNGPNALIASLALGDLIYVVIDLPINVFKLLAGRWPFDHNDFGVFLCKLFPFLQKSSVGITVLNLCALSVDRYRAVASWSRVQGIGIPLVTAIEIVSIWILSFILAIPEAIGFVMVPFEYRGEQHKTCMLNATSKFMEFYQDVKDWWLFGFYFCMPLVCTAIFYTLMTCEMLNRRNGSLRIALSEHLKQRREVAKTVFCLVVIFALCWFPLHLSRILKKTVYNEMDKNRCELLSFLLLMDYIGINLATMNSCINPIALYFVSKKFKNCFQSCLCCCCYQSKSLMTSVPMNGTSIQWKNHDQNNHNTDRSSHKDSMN

In the next experiment the target is D(1A) dopamine receptor (Homo sapiens, UniProt P21728). It counts as functional, cell-based.
Chain of D(1A) dopamine receptor (P21728 whole entry): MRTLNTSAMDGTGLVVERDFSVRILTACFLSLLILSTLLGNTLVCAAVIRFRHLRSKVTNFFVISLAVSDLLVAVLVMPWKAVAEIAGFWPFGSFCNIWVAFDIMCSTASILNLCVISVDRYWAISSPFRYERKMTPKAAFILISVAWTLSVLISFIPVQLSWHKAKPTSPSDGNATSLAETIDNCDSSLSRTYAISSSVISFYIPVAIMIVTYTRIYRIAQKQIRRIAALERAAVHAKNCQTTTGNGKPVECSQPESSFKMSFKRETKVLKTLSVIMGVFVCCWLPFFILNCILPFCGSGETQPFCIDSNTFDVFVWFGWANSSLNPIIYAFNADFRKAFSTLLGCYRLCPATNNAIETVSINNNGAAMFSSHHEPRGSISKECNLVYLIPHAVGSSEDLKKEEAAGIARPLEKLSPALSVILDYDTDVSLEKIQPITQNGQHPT
Experiment [7] concerns the target T5, 5-hydroxytryptamine receptor 2C (Homo sapiens, UniProt P28335).
T5 sequence (P28335 whole entry): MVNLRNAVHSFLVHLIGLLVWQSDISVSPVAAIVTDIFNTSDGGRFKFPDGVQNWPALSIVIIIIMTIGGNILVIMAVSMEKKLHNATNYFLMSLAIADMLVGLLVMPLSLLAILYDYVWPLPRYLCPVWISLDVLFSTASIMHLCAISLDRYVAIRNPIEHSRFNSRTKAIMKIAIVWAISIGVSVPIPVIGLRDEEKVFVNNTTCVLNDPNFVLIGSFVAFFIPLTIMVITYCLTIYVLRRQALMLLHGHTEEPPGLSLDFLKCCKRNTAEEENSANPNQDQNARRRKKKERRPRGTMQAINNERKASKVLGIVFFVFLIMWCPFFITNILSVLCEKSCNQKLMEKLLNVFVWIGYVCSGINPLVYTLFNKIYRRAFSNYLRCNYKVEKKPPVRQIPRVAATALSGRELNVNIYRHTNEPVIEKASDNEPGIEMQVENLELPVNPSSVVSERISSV

Experiment [8] has as its target T6, Equilibrative nucleoside transporter 1 (Homo sapiens, UniProt Q99808).
T6 sequence (Q99808 whole entry): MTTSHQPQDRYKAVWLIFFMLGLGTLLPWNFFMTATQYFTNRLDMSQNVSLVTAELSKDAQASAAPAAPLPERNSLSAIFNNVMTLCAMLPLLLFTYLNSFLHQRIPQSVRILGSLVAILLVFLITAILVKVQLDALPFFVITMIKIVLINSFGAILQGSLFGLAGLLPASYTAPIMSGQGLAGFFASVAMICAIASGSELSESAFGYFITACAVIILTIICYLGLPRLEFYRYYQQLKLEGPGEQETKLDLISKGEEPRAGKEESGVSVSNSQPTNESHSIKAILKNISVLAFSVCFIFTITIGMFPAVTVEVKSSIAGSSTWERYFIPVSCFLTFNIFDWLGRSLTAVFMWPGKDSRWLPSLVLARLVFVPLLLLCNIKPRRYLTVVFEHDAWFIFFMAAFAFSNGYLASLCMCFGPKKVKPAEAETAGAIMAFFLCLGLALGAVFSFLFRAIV

The target of experiment [9] is Glutamate receptor ionotropic, NMDA 1 (Rattus norvegicus, UniProt P35439).
Further: assay procedure not described here.

Chain of D(3) dopamine receptor (P35462 whole entry): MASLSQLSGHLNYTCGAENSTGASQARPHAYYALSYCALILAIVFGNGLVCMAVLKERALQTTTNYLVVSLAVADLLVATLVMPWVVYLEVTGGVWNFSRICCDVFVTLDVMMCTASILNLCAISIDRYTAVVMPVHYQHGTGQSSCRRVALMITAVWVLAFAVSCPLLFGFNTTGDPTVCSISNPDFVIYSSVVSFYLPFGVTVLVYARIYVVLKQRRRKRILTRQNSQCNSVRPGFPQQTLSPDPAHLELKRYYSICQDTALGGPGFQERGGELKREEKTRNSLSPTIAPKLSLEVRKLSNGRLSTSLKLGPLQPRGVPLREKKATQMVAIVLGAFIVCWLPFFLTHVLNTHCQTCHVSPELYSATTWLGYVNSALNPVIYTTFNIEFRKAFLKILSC

For `CN(C)CC(c1ccc(O)cc1)C1(O)CCCCC1` (stereo not drawn) [DESVENLAFAXINE], the AC50 in experiment [1], in experiment [2] and in [3] was above 30 µM in each case.
Regarding `OCCN1C[C@H](O)[C@@H](O)[C@H](O)[C@H]1CO` [MIGLITOL], the AC50 (in experiment [1]; on D(3) dopamine receptor; in experiment [2]; in experiment [3]) was above 30 µM each time.
In the case of `CCC(=O)NCC[C@@H]1CCc2ccc3c(c21)CCO3` [RAMELTEON], the AC50 (in experiment [1]; on D(3) dopamine receptor; in [2]; in experiment [3]) was above 30 µM throughout.
As to `CC(=O)NCCCS(=O)(=O)O` [ACAMPROSATE], the concentration at half-maximal activity (AC50) (in [4]; in [5]; in [6]; on Endothelin-1 receptor; on D(1A) dopamine receptor; in experiment [7]) was above 30 µM each time.
Take `CN(C)CCN1C(=O)c2ccccc2N(C)c2ccccc21` [DIBENZEPIN]: the concentration at half-maximal activity (AC50) in [1] is above 30 µM; at D(3) dopamine receptor, 16.3 µM; in [2], above 30 µM; in experiment [3], above 30 µM.
With `O=C(CCNNC(=O)c1ccncc1)NCc1ccccc1` [NIALAMIDE], the AC50 (in experiment [1]; at D(3) dopamine receptor; in experiment [2]; in experiment [3]) was above 30 µM throughout.
On to `CC[N+]1(C)[C@@H]2CC(OC(=O)[C@H](CO)c3ccccc3)C[C@H]1[C@@H]1O[C@@H]12` (stereo partly drawn) [OXITROPIUM], for which the AC50 was 0.003 µM in experiment [1], above 30 µM on D(3) dopamine receptor, above 30 µM in experiment [2] and above 30 µM in experiment [3].
In the case of `CC(C)Nc1ncccn1` [ISAXONINE], the AC50 (in experiment [1]; on D(3) dopamine receptor; in experiment [2]; in experiment [3]) was above 30 µM throughout.
Take `CC(=O)N[C@@H]1[C@@H](O)[C@H](O)[C@@H](CO)O[C@H]1O` [N-ACETYLGLUCOSAMINE]: the AC50 (in [1]; on D(3) dopamine receptor; in experiment [2]; in experiment [3]) was above 30 µM throughout.
In the case of `COc1ccc(CC(C)(C)NC[C@H](O)c2cc(O)cc3c2OCC(=O)N3)cc1` [OLODATEROL], the AC50 in [4] was above 30 µM; in experiment [5] it was 17.5 µM; in experiment [8] it was above 30 µM; in [6] it was above 30 µM; at Endothelin-1 receptor, above 30 µM; on D(1A) dopamine receptor, above 30 µM. The same compound showed an AC50 in experiment [7] above 30 µM.
Regarding `CN(C)S(=O)(=O)c1ccc2c(c1)N(CCCN1CCC(CCO)CC1)c1ccccc1S2` [PIPOTIAZINE], the AC50 in experiment [1] is 7.84 µM; at D(3) dopamine receptor, 0.003 µM; in experiment [2] it was above 30 µM; in experiment [3], above 30 µM.
In the case of `CCCCN1C[C@H](O)[C@@H](O)[C@H](O)[C@H]1CO`, the concentration at half-maximal activity (AC50) (in experiment [4]; in experiment [5]; in experiment [8]; in experiment [6]; at Endothelin-1 receptor; in experiment [9]) was above 30 µM each time. Moreover, the AC50 (at D(1A) dopamine receptor; in experiment [7]) was above 30 µM throughout.
With `Nc1ccn([C@H]2CC[C@@H](CO)O2)c(=O)n1` [ZALCITABINE], the half-maximal activity concentration (AC50) was above 30 µM in [4]; above 10 µM in experiment [5]; above 10 µM in experiment [8]; above 30 µM in experiment [6]; above 10 µM in [9]; above 10 µM at D(1A) dopamine receptor. In experiment [7], the AC50 was above 30 µM.
As to `NS(=O)(=O)Cc1noc2ccccc12` [ZONISAMIDE], the AC50 is above 30 µM in [4]; above 10 µM in [5]; above 10 µM in experiment [8]; above 10 µM in [6]; above 10 µM in experiment [9]; above 10 µM on D(1A) dopamine receptor. Also, in experiment [7], the AC50 was above 30 µM.
Turning to `CN1C(=O)CCS(=O)(=O)C1c1ccc(Cl)cc1` (stereo not drawn) [CHLORMEZANONE], the AC50 in experiment [4] was above 30 µM; in experiment [5] it was above 10 µM; in [8], above 10 µM; in experiment [6], above 10 µM; in [9] it was above 10 µM; at D(1A) dopamine receptor it was above 10 µM. Also, the AC50 in [7] is above 30 µM.
Regarding `Oc1c(Cl)cc(Cl)c2cccnc12` [CHLOROXINE], the AC50 (in [1]; on D(3) dopamine receptor; in experiment [2]; in [3]) was above 30 µM each time.
With `N[C@H](C(=O)O)[C@H](O)c1ccc(O)c(O)c1` [DROXIDOPA], the AC50 (in experiment [1]; on D(3) dopamine receptor; in experiment [2]; in experiment [3]) was above 30 µM throughout.
In the case of `COc1cc2nc(N(C)CCCNC(=O)C3CCCO3)nc(N)c2cc1OC` (stereo not drawn) [ALFUZOSIN], the AC50 (in experiment [4]; in experiment [5]; in [8]; in experiment [6]; at Endothelin-1 receptor; in experiment [9]) was above 30 µM each time. Besides, the AC50 (on D(1A) dopamine receptor; in experiment [7]) was above 30 µM in each case.
As for `O=C(O[C@H]1C[C@H]2CC[C@@H](C1)[N+]21CCCC1)C(O)(c1ccccc1)c1ccccc1` [TROSPIUM], the AC50 (in experiment [4]; in experiment [5]; in experiment [8]; in experiment [6]; in [9]; at D(1A) dopamine receptor) was above 30 µM throughout. For the same compound, the AC50 in experiment [7] is above 30 µM.
With `COc1ccccc1OCC(O)CN1CCN(CC(=O)Nc2c(C)cccc2C)CC1` (stereo not drawn) [RANOLAZINE], the AC50 (in experiment [4]; in experiment [5]; in experiment [8]; in experiment [6]; on Endothelin-1 receptor; in experiment [9]) was above 30 µM each time. The AC50 (at D(1A) dopamine receptor; in experiment [7]) was above 30 µM in each case.
